The values that follow come from US10111877B2, “Modulators of androgen synthesis” (Tangent Reprofiling Limited, priority 2012, dated 2018).

In this assay the test system is PC3 cells. Put plainly: Cell growth inhibition, lysed cell LDH assay, prostate cancer cell line. Format: cell-based. The protocol:
To determine whether Risperidone could be effective in inhibiting growth of cancer cells overexpressing HSD10, a lysed cell LDH assay was conducted using cells from a PC3 cell line.
PC3 cells are from a cell line derived from a hormone refractory prostate cancer and are known to overexpress HSD10. […] Cells line tests were carried out in presence and absence of testosterone for comparison. After incubation in the drug treatment for 96 hours at 37° C., 5% CO2, the supernatant was removed from all wells of cells, and cells washed with 200 μL PBS.
(§1) After removal of the PBS, cell number was determined using a lysed cell LDH assay (CytoTox 96 Non-radioactive cytotoxicity assay (LDH Assay); Promega, Co., Madison Wis.). Cells were lysed with 0.9% Triton-X in PBS for 2 hours at 37° C., 5% CO2 and 50 μL of this cell lysate was transferred to a fresh 96 well plate. About 50 μL of CytoTox 96 assay reagent was added to the transferred cell lysate and this mixture was incubated at room temperature in the dark for 20 minutes. After the addition of 50 μL stop reagent, the optical absorbance was determined for each incubated mixture at 492 nm. […] The mean and standard error was calculated from at least 3 wells.
To determine the optimal concentration of Risperidone and CLA necessary to inhibit cell growth, a lysed cell LDH assay was conducted using various concentration of Risperidone and CLA. PC3 cells were cultured and a lysed cell LDH assay was conducted as described above, except that the various drug treatments evaluated contained either 0 μM, 12.5 μM, 25 μM, or 50 μM Risperidone in combination with 0 μM, 6.25 μM, 12.5 μM, 25 μM, 50 μM, or 100 μM CLA (see Table 3).
as §1, with “PBS from the cell cultures described above,” for “PBS,”, “assay.” for “assay (CytoTox 96 Non-radioactive cytotoxicity assay (LDH Assay); Promega, Co., Madison Wis.).”

The structures appear in SMILES notation.

As to `CCCCCC/C=C/C=C\CCCCCCCC(=O)O` [CLA, 9Z, 11E conjugated Linoleic acid], the “Percentage of Lysed Cells” value (0 μM Risperidone, 6.25 μM CLA (Table 4)) was 96 ± 0.7%; the “Percentage of Lysed Cells” value (0 μM Risperidone, 12.5 μM CLA (Table 4)) is recorded as 90 ± 2.7%; the “Percentage of Lysed Cells” value (0 μM Risperidone, 25 μM CLA (Table 4)) is listed as 112 ± 9.5%; the “Percentage of Lysed Cells” value (0 μM Risperidone, 50 μM CLA (Table 4)) is on record as 103 ± 9.3%; the “Percentage of Lysed Cells” value (0 μM Risperidone, 100 μM CLA (Table 4)) was found to be 66 ± 11.8%; the “Percentage of Lysed Cells” value (12.5 μM of each drug, 96 hours, 100% = no drug treatment (Table 3)) came to 109 ± 0.56%. The “Percentage of Lysed Cells” value is, setting by setting: (25 μM of each drug, 96 hours, 100% = no drug treatment (Table 3)) 112 ± 1.1%; (50 μM of each drug, 96 hours, 100% = no drug treatment (Table 3)) 107 ± 2.4%; (PC3, 50 μM Risperidone and/or 50 μM CLA, 1 μM Testosterone (T) where added, 96 hours (Table 5)) 107 ± 2.4%. The “growth inhibition of PC3 cells” value (50 μM) is “no effect alone”.
